Experimental data reported in patent US12589103B2, “Antimicrobial and antiviral effects of C2-C7 alkyl boronic acids” (CORNELL UNIVERSITY, priority 2019, dated 2026).
Entries after “also recorded” stand apart in the source; their conditions may differ.

What was measured:
[1] = system: enteric pathogens (E. coli, Salmonella, Listeria monocytogenes, Klebsiella); experiment: Bacterial growth panel, OD600 growth-curve AUC ratio (heat map); type: cell-based; details: for antibacterial activity / potency against enteric pathogens (growth, AUC+test compound:AUC−test compound): 40 mM (BA, EBA, PBA), 20 mM (BBA), 10 mM (PeBA), 5 mM (HBA, SBA), 1 mM (OBA), 0.5 mM (DBA), 2 mM (DoDBA), 20 mM (FMPBA), 24-48 hrs; for selectivity for Gram Negative enteropathogens: growth panel
[2] = system: Gram Positive aerobes and probiotic species (Lactobacillus, Bifidobacteria); experiment: Bacterial growth panel, impact on non-target species (selectivity); type: cell-based; details: for selectivity against Probiotic spp: compared with BA
Listeria monocytogenes = experiment: Bacterial growth panel, Listeria; type: cell-based
Description: (§1) The control sample contained 40 mM NaCl.
Growth of bacteria with or without addition of C2-C8 C10, and C12 alkyl boronic acids, BA, or FMPBA was monitored by readings at OD600. […] The area under the curve (“AUC”) of the growth curve was calculated and the results were expressed as AUC+test compound:AUC−test compound.

[3] = system: Feline Infectious Peritonitis Virus (FIPV) Black (TN-406); experiment: FIPV replication and syncytium formation, immunofluorescence; type: cell-based, Feline Coronavirus type I; details: 10, 20, 30, 40 mM; Feline Lung cells, 18 h post-infection
Henle-407 cells = details: higher concentrations
Feline Lung cells = experiment: Cytotoxicity in FIPV infected Feline Lung cells
FIPV = details: known drugs; cited from earlier work
[4] = system: diarrheagenic E. coli and APEC; experiment: Growth of diarrheagenic and APEC E. coli in LB media; type: cell-based; details: 30 mM
Description: as §1
Diarrheagenic E. coli pathogroups differ by their preferential host colonization sites, virulence mechanisms, and clinical symptoms.

[5] = system: AIEC and cancer associated E. coli; experiment: Soft agar motility assay, E. coli; type: cell-based; details: 10 h, AIEC NC101, 541-1, cancer associated E. coli
Description: The ability of ABA C1-3 and BA to impact the motility of E. coli and Salmonella was evaluated using sloppy agar treated with and without BA and C1-C3 alkyl boronic acids. Motility is strongly linked to the virulence phenotype of these bacterial strains. E. coli was grown overnight at 37° C. in LB broth. Soft agar plates (1% tryptone, 0.5% NaCl, 0.25% agar) were prepared the day before the assay was carried out. Sterile NaCl (control), boric or boronic acid stock solution was added into the agar right before pouring the plates. The overnight cultures of E. coli were transferred (3 μl) on to the center of each plate, followed by incubation of the plates at 37° C. for 10 h. E. coli motility was quantified by measuring the diameter of the circular swarming area formed by the growing motile bacteria.

nF-κB = experiment: E. coli induced nF-κB activation in HEK-Blue KD-TLR5 cells (SEAP reporter); type: cell-based; details: m.o.i 20, SEAP at 24 h
Description: HEK-Blue KD-TLR5 cells were used to detect the promotor activation of nF-κB by E. coli infection with or without boric or boronic acid treatment. nF-κB is the prototypical transcription factor for pro-inflammatory cytokines in epithelium. Briefly, cells were seeded in 96-well plates at a density of 5×10^4 cells per well. E. coli was diluted into fresh cell medium containing either NaCl (Control), boric or boronic acid at an m.o.i of 200 as 10× inocula, followed by addition of this inoculum (10 μl) into each well containing 100 μl of medium for a final m.o.i of 20. At 3 h post infection, the cell medium was carefully removed from each well, and replaced with 100 μl of fresh medium containing gentamycin (200 μg mL^−1). At 24 h post infection, the spent medium was collected, and centrifuged at 12,000 r.p.m. for 5 min to remove any particulate matter. QUANTI-Blue Kit (InvivoGen, San Diego, CA, USA) was used to detect the reporter protein SEAP (secreted alkaline phosphatase) following the manufacturer's instructions.

[6] = system: AIEC in murine macrophage J774A.1 cells; experiment: Uptake and survival of AIEC in J774A.1 macrophages; type: cell-based, E. coli
[7] = system: AIEC E. coli (541-1, LF82) virulence genes; experiment: Virulence gene expression of AIEC (qRT-PCR); type: cell-based; details: 30 mM
Description: Total RNA was extracted using the Qiagen RNAProtect-RNeasy Kit per manufacturer's protocol. Total RNA was treated with TURBO DNA-Free Kit (Ambion), followed by a two-step qRT-PCR analysis, using Qiagen's QuantiTect Reverse Transcription Kit and QuantiNova SYBR Green PCR Kit. Each qPCR reaction contained 1 μl of cDNA, 0.7 μl of each forward and reverse primers (10 μM), 5 μL of 2× SYBR Green Master Mix, 1 μl of QN ROX Reference Dye and […] of nuclease-free water to make the total volume of 10 μl. The reaction was run with ABI7000 (Applied Biosystems). […] The relative change of a targeted gene expression was calculated by using the equation RQ=2^−ΔΔCT.

[8] = 8-week toxicity study in mice, drinking water; type: in vivo, C57/B18 mice; details: mouse, in vivo
Description: The toxicity of boric and ethylboronic acids were examined with C57/B18 mice. At concentrations of 0, 10, 20, and 40 mM, the two chemicals were given to each group (6 mice) in drinking water. The body weight of each mouse was recorded weekly for 8 weeks, and fecal samples were also collected weekly for 16s sequencing. All animals were sacrificed at the end of 8th week. The length of whole intestine and ileum of each mouse was measured, and sections of the intestine (i. e. small intestine, ileum, cecum, and large intestine) were taken for histopathological and FISH analysis. Fecal samples were used for 16s and lipocalin analysis.
For lipocalin analysis, mouse fecal pellets were collected and frozen at −80 C during toxicity study. To determine lipocalin activity fecal pellets were diluted in microfuge tubes 1/30 with 0.1% Tween20/PBS and vortexed for 20 min at maximum speed. Undissolved particles were removed by centrifuging at 12,000 rpm for 10 min at 4 C. Supernatant was removed and placed into a clean microfuge tube. Lipocalin activity was determined using Mouse Lipocalin-2/NGAL DuoSet ELISA Kit (R&D Systems, DY1857) per manufacturer's instructions.

[9] = DSS induced colitis in mice; type: in vivo, C57BL mice; details: 40 mM in drinking water after DSS (3%)
Description: On the basis of favorable in vivo toxicity tests, the ability of BA and EBA to reduce the severity of inflammation in murine models of microbially driven IBD was tested. The effect of BA and EBA (40 mM) on intestinal inflammation was evaluated in mice with dextran sodium sulfate (“DSS”) induced colitis. The DSS model has a complex etiopathogenesis that involves host-immune and inflammatory responses and the enteric microbiome BA To test their protecting ability to the gastrointestinal tract, boric and ethylboronic acid were given to C57BL mice at 40 mM concentration respectively in drinking water after DSS (3%) treatment. Body weight and fecal samples were taken before and after 6-day treatment. At the 6th day, all mice were euthanized for gross necropsy and histopathology. Intestinal sections were collected and embedded for pathological and FISH analysis. Fecal samples were used for 16s and lipocalin analysis.

AIEC E. coli = details: complex media lacking ethanolamine or fucose
[10] = system: probiotic Lactobacillus spp; experiment: Growth of probiotic Lactobacillus strains; details: three Lactobacillus strains

CCCCCCB(O)O [HBA, hexyl boronic acid]
antibacterial activity / potency against enteric pathogens (growth, AUC+test compound:AUC−test compound) [1]: high potency vs enteropathogens while somewhat sparing probiotic species | selectivity for Gram Negative enteropathogens [1]: highest | selectivity against Probiotic spp [2]: more selective than BA | selectivity of activity against Listeria monocytogenes (Listeria monocytogenes): selectivity apparent | replication and syncytium formation of FIPV [3]: inhibited replication and syncytium formation of FIPV in infected cells; also recorded: antiviral activity was observed at lower doses without cytotoxicity | cytotoxicity in Henle cells (Henle-407 cells): cytotoxic at higher concentrations | cytotoxicity in antiviral assay (Feline Lung cells): Cytotoxicity was observed

N#C[C@@]1(c2ccc3c(N)ncnn23)O[C@H](CO)[C@@H](O)[C@H]1O [GS-441524]
efficacy against FIPV (FIPV): some efficacy against FIPV

CCCCB(O)O [BBA, butyl boronic acid]
antibacterial activity / potency against enteric pathogens (growth, AUC+test compound:AUC−test compound) [1]: high potency vs enteropathogens while somewhat sparing probiotic species | selectivity for Gram Negative enteropathogens [1]: highest | selectivity against Probiotic spp [2]: more selective than BA | selectivity of activity against Listeria monocytogenes (Listeria monocytogenes): selectivity apparent | replication and syncytium formation of FIPV [3]: inhibited replication and syncytium formation of FIPV in infected cells; also recorded: antiviral activity was observed at lower doses without cytotoxicity | cytotoxicity in antiviral assay (Feline Lung cells): Cytotoxicity was observed

Cc1ccc(B(O)O)c(F)c1 [FMPBA, 2-fluro-4-methlyphenylboronic acid, reference compound]
antibacterial activity / potency against enteric pathogens (growth, AUC+test compound:AUC−test compound) [1]: more generalized and potent antibacterial activity than C2-C7 alkyl boronic acid compounds; also recorded: bacteriocidal | selectivity: impact on Gram Positive aerobes and probiotic species ([2]; same concentrations as growth panel): not selective and killed more Gram Positive aerobes and probiotic species than C2-C7 alkyl boronic acid compounds; also recorded: minimally selective

CCCCCCCCCCB(O)O [DBA, decyl boronic acid, reference compound]
antibacterial activity / potency against enteric pathogens (growth, AUC+test compound:AUC−test compound) [1]: marked decrease in antibacterial activity | antibacterial activity / potency against enteric pathogens (growth, AUC+test compound:AUC−test compound) ([1]; listed as C10): much less potency than C2-C7 alkyl boronic acids

CCCCCCCB(O)O [SBA, heptyl boronic acid]
selectivity for Gram Negative enteropathogens [1]: highest

OB(O)O [BA, Boric acid, reference compound]
inhibition of growth of diarrheagenic and APEC E. coli [4]: have activity versus the diarrheagenic E. coli and APEC that varies by pathogroup | motility of E. coli [5]: had less impact | induction of nF-κB by E. coli (nF-κB): reduced the induction of nF-κB by E. coli | survival of AIEC in J774A.1 macrophages ([6]; 30 mM during infection, 24 h post infection): inhibited the survival | uptake of AIEC by J774A.1 macrophages ([6]; 30 mM, 1 h): inhibited the uptake | pduC expression in 541-1 [7]: Upregulation | pduC expression in LF-82 [7]: Upregulation | fecal 16S profiles [8]: not significantly different from control mice | colon length in DSS colitis versus control mice [9]: significantly different | fecal lipocalin levels in DSS colitis versus control mice [9]: significantly different | intestinal bleeding in DSS colitis [9]: observed | body weight in DSS colitis ([9]; 6-day treatment): reduced | replication and syncytium formation of FIPV [3]: able to inhibit replication and syncytium formation | suppression of AIEC growth in complex media (AIEC E. coli): effective in suppressing AIEC growth

CCCCCCCCB(O)O [OBA, octyl boronic acid, reference compound]
antibacterial activity / potency against enteric pathogens (growth, AUC+test compound:AUC−test compound) [1]: marked decrease in antibacterial activity | antibacterial activity / potency against enteric pathogens (growth, AUC+test compound:AUC−test compound) ([1]; listed as ABA C8): much less potency than C2-C7 alkyl boronic acids

CCCCCB(O)O [PeBA, pentyl boronic acid]
cytotoxicity in Henle cells (Henle-407 cells): cytotoxic at higher concentrations

CB(O)O [MBA, methyl boronic acid, reference compound]
motility of E. coli [5]: had less impact | growth of probiotic Lactobacillus spp [10]: do not suppress growth
